Test results published in patent publication US11987648B2, “Cyclohexapeptides as selective somatostatin SST5 receptor agonists” (Heptares Therapeutics Limited, priority 2018, dated 2024).
Where two headings read alike, the source gives them in different places. *1 amine or outer side, *2 acyl side, *3 side chain or, on linkers, in order; H or OH if unused. Where a SMILES comes first, the peptide text is derived from it. Side-chain parts run from the residue outwards. [ ]: non-standard residue; d: D form. The star is where a group is joined. Ala(piperidin-4-yl) = O=C([C@H](CC1CCN([*:3])CC1)N[*:1])[*:2]; Ala(piperazin-1-yl) = N[C@@H](CN1CCNCC1)C(=O)O; X7 = NCCOC(=O)N1CCN([*:1])[C@H](C(=O)[*:2])C1; Pro(4,4-F2) = O=C(O)[C@@H]1CC(F)(F)CN1; Ethylenediamine = C(CN[*:2])N[*:1]; d(hPhe) = N[C@H](CCc1ccccc1)C(=O)O; Hyp = O=C(O)[C@@H]1C[C@@H](O)CN1; Pip(4-aza) = O=C(O)[C@@H]1CNCCN1; hPhe = N[C@@H](CCc1ccccc1)C(=O)O; 3Pal = N[C@@H](Cc1cccnc1)C(=O)O; Cyclohexylmethyl = C1CCC(C*)CC1; Tic = O=C(O)[C@@H]1Cc2ccccc2CN1; Phg = N[C@H](C(=O)O)c1ccccc1; X3 = CN[C@H]1CCN(*)C1; CO = O=C([*:1])[*:2]; Bn = c1ccc(C*)cc1

Key:
SST5 = SST5 (Homo sapiens, UniProt P35346); test: Hit Hunter cAMP XS+ assay, SST5 activation via Gi (reduction of forskolin-stimulated cAMP); assay type: cell-based; settings: for Emax: read-out: SST5 (EMax); for SST5/2 Selectivity: selectivity for SST5 over SST2
Sequence of SST5 (P35346 whole entry, the tested form may be a part): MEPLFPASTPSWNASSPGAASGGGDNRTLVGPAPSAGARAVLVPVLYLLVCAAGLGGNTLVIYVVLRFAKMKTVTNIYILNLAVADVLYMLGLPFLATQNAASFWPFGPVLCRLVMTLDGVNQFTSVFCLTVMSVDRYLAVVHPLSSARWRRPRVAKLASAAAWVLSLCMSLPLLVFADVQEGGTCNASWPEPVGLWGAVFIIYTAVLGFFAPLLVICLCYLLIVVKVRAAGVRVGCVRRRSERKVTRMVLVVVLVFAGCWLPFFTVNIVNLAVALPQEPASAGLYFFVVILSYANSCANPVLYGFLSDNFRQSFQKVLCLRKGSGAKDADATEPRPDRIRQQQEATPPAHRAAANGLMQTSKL
How it was run: (§1)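 Cells (10,000/well) incubated 30 min at 37 °C with compound under EC80 forskolin ([…] for SST2, 15 μM for SST5). cAMP reduction was detected by enzyme-fragment complementation chemiluminescence after 60 min and 180 min room-temperature reagent steps. Potency and efficacy were both measured.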

SST2 = SST2 (Homo sapiens, UniProt P30874); test: Hit Hunter cAMP XS+ assay, SST2 activation via Gi (reduction of forskolin-stimulated cAMP); assay type: cell-based; settings: for Emax: read-out: SST2 (EMax)
Sequence of SST2 (P30874 whole entry): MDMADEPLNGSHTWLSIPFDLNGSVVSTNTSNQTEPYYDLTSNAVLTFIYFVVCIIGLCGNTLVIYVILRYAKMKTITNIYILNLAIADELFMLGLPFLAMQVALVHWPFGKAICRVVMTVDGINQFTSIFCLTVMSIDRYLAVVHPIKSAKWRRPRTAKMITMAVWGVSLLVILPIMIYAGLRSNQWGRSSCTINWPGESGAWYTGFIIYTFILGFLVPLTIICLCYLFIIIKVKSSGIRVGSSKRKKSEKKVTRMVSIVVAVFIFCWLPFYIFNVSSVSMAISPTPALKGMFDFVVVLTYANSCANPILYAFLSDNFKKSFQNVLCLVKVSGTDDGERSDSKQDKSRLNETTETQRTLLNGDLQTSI
How it was run: as §1

[1] = Phase I trial, pancreatic cancer, combination treatment with gemcitabine; cited from earlier work
[2] = Phase II trial, hepatocellular carcinoma; cited from earlier work
[3] = reduction of forskolin-stimulated cAMP, 4-parameter logistic fit, read-out: SST5 pEC50 (converted)
[4] = reduction of forskolin-stimulated cAMP, 4-parameter logistic fit, read-out: SST2 pEC50 (converted)
[5] = efficacy normalised to somatostatin 28 (basal 0%, 100% = signal with 50 nM somatostatin 28)

Row | Molecule | Emax (SST5) [%] | EC50 (SST5; [3]) [nM] | SST5/2 Selectivity (SST5) | Emax (SST2) [%] | EC50 (SST2; [4]) [nM] | EC50 (SST5) [nM] | disease control rate [1] [%] | EC50 (SST2) [nM] | patients with limitation of disease progression [2] [%] | SST5 (EMax) (SST5; [5]) [%] | SST2 (EMax) (SST2; [5]) [%]
1 | NCCNC(=O)O[C@@H]1C[C@H]2C(=O)N[C@@H](CCc3ccccc3)C(=O)N[C@H](Cc3c[nH]c4ccccc34)C(=O)N[C@@H](CN3CCNCC3)C(=O)N[C@@H](Cc3ccc(OCc4ccccc4)cc3)C(=O)N3CC(F)(F)C[C@H]3C(=O)N2C1 [Example 70] (cyclo([Hyp]([CO-Ethylenediamine])[hPhe][dW][Ala(piperazin-1-yl)]Y(Bn)[Pro(4,4-F2)])) | 102 | 5.01 | 1815.8 | 77.9 | > 10000 | – | – | – | – | – | –
2 | NCCNC(=O)O[C@@H]1C[C@H]2C(=O)N[C@H](CCc3ccccc3)C(=O)N[C@H](Cc3c[nH]c4ccccc34)C(=O)N[C@@H](CN3CCNCC3)C(=O)N[C@@H](Cc3ccc(OCC4CCCCC4)cc3)C(=O)N[C@@H](Cc3cccnc3)C(=O)N2C1 [Example 71] (cyclo([3Pal][Hyp]([CO-Ethylenediamine])[d(hPhe)][dW][Ala(piperazin-1-yl)]Y(Cyclohexylmethyl))) | 103 | 63.1 | 171.4 | 52.8 | > 10000 | – | – | – | – | – | –
3 | NCCOC(=O)N1CCN2C(=O)[C@@H]3Cc4ccccc4CN3C(=O)[C@H](Cc3ccc(OCc4ccccc4)cc3)NC(=O)[C@H](CN3CCNCC3)NC(=O)[C@@H](Cc3c[nH]c4ccccc34)NC(=O)[C@H](CCc3ccccc3)NC(=O)[C@@H]2C1 [Example 72] (cyclo([Tic][X7][hPhe][dW][Ala(piperazin-1-yl)]Y(Bn))) | 101 | 6.31 | 1621.3 | 14 | > 10000 | – | – | – | – | – | –
4 | O=C1N[C@@H](Cc2ccc(OCc3ccccc3)cc2)C(=O)N2Cc3ccccc3C[C@H]2C(=O)N2CCNC[C@H]2C(=O)N[C@@H](CCc2ccccc2)C(=O)N[C@H](Cc2c[nH]c3ccccc23)C(=O)N[C@H]1CC1CCNCC1 [Example 73] (cyclo([Tic][Pip(4-aza)][hPhe][dW][Ala(piperidin-4-yl)]Y(Bn))) | 94.9 | 0.631 | 566.7 | 99.2 | 398 | – | – | – | – | – | –
5 | CN[C@H]1CCN(C(=O)O[C@@H]2C[C@H]3C(=O)N[C@@H](CCc4ccccc4)C(=O)N[C@H](Cc4c[nH]c5ccccc45)C(=O)N[C@@H](CC4CCNCC4)C(=O)N[C@@H](Cc4ccc(OCc5ccccc5)cc4)C(=O)N4Cc5ccccc5C[C@H]4C(=O)N3C2)C1 [Example 78] (cyclo([Hyp]([CO-X3])[hPhe][dW][Ala(piperidin-4-yl)]Y(Bn)[Tic])) | 106 | 1.26 | 2726.7 | 76.2 | 3160 | – | – | – | – | – | –
6 | NCCCC[C@@H]1NC(=O)[C@@H](Cc2c[nH]c3ccccc23)NC(=O)[C@H](c2ccccc2)NC(=O)[C@@H]2C[C@@H](OC(=O)NCCN)CN2C(=O)[C@H](Cc2ccccc2)NC(=O)[C@H](Cc2ccc(OCc3ccccc3)cc2)NC1=O [pasireotide, reference compound] (cyclo([Hyp]([CO-Ethylenediamine])[Phg][dW]KY(Bn)F)) | 102 | – | 3.8 | 100 | – | 0.251 | 68 | 1 | 45 | – | –
7 | somatostatin 28 [reference compound] | – | – | 4.6 | – | – | – | – | – | – | 101.0 | 100.4
